≈ marks a conversion by molar mass, not a printed value.
Legend:
conscious rats = test: Effect of compounds on mean aortic pressure and heart rate in conscious rats (oral); type: in vivo, genetically hypertensive rats; settings: for Heart Rate / mean aortic pressure / Heart Rate % Change / Aortic Pressure % Change: 50 mg/kg po; for Aortic Pressure % Change: - denotes a decrease in b.p.
Experimental: The blood pressure of unanesthetized rats and dogs was measured directly by means of a transducer attached to an intra-arterial cannula and in anesthetized dogs by a mercury manometer attached to a carotid cannula.
The compounds of the instant invention were tested as the hydrochloride salts by the above method in genetically hypertensive rats in doses of 50 mg./kg. orally.
Compounds were studied by oral administration in conscious rats for their effects on aortic pressure and cardiac rate.

[1] = as compared to compound 1; Jen et al, J. Med. Chem. 16, 633 (1973); cited from earlier work
[2] = test system: collagen induced platelet aggregation; test: In vitro inhibition of collagen induced platelet aggregation (aggregometer method of Born); type: cell-based; settings: Oryctolagus cuniculus; rabbit platelet rich plasma, 0.05 ml. collagen suspension
Experimental: (§1) The aggregometer method of Born (1), as modified by Mustard et al (2) was used to assess the in vitro activity of the various compounds as to inhibition of adenosine diphosphate (ADP) and collagen induced platelet aggregation. Platelet rich plasma was separated by centrifugation from citrated (3.8 per cent) rabbit blood. ADP in final concentration of 0.5 mcg./ml. or 0.05 ml. of a collagen suspension prepared according to the method described by Evans et al. (3) was used to induce aggregation. The various compounds tested were dissolved in dimethylsulfoxide (DMSO) so that 5 mcl. added to the platelet rich plasma would yield the desired test concentration. Vehicle control trials were done and compared with aggregation induced in platelet rich plasma containing various concentrations of the test compounds. Dose response curves were obtained and Effective Concentration (EC50) values calculated.
(§2) 1. Born, G.V.R J. Physiol., London, 162, 67P (1962).
(§3) 2. mustard, J. F., Hegardt, B. Rowsell, H. C. and MacMillan, R. L., J. Lab. Clin. Med. 64, 548 (1964).
(§4) 3. Evans, G. Marian, M. C., Packham, M. A., Nishizawa, E. E., Mustard, J. F. and Murphy, E. A., J. Exp. Med., 128, 877 (1968).

[3] = test system: adenosine diphosphate (ADP) induced platelet aggregation; test: In vitro inhibition of ADP induced platelet aggregation (aggregometer method of Born); type: cell-based; settings: Oryctolagus cuniculus; rabbit platelet rich plasma, ADP 0.5 mcg./ml.
Experimental: as §1, §2, §3, §4

[4] = oral administration, conscious rats

Row | EC50 [2] [µg/mL] | EC50 [3] [µg/mL] | Structure (SMILES) | Heart Rate (conscious rats; N=3, 0 min (baseline)) [Beats/Min] | mean aortic pressure (conscious rats; N=3, 0 min (baseline)) [mmHg] | Heart Rate (conscious rats; N=3, 30 min) [Beats/Min] | Heart Rate % Change (conscious rats; N=3, 30 min) [%] | mean aortic pressure (conscious rats; N=3, 30 min) [mmHg] | Aortic Pressure % Change (conscious rats; N=3, 30 min) [%] | Heart Rate (conscious rats; N=3, 90 min) [Beats/Min] | Heart Rate % Change (conscious rats; N=3, 90 min) [%] | mean aortic pressure (conscious rats; N=3, 90 min) [mmHg] | Aortic Pressure % Change (conscious rats; N=3, 90 min) [%] | Heart Rate (conscious rats; N=3, 150 min) [Beats/Min] | Heart Rate % Change (conscious rats; N=3, 150 min) [%] | mean aortic pressure (conscious rats; N=3, 150 min) [mmHg] | Aortic Pressure % Change (conscious rats; N=3, 150 min) [%] | Heart Rate (conscious rats; N=3, 300 min) [Beats/Min] | Heart Rate % Change (conscious rats; N=3, 300 min) [%] | further results
1 | – | – | O=C1CC2Cc3ccccc3N=C2N1 (centres unmarked) [BL-4369] | 350±25 | 114±2 | 420±19 | 21±9 | 91±6 | -20±6 | 414±26 | 19±9 | 110±3 | -3±4 | 370±31 | 6±8 | 101±3 | -11±2 | 382±25 | 10±7 | mean aortic pressure (conscious rats; N=3, 300 min): 109±8 mmHg
2 | – | – | Cc1cccc2c1CC1CC(=O)NC1=N2 (centres unmarked) [BL-4412] | 352±21 | 126±2 | 464±24 | 34±15 | 86±1 | -32 | 432±12 | 24±10 | 86±2 | -31.2 | 422±12 | 21±11 | 89±4 | -29 | 422±19 | 1±12 | Aortic Pressure % Change (conscious rats; N=3, 300 min): -25%; effect on aortic pressure (in words) (conscious rats; [4]): appreciable fall in aortic pressure; effect on heart rate (in words) (conscious rats; [4]): not out of proportion to the fall in aortic pressure
3 | – | – | c1ccc2c(c1)CC1CCNC1=N2 (centres unmarked) [compound 2] | – | – | – | – | – | – | – | – | – | – | – | – | – | – | – | – | antihypertensive activity (in words) [1]: low degree of antihypertensive activity
4 | 27 (≈ 145 µM) | 22 (≈ 118 µM) | O=C1CC2Cc3ccccc3N=C2N1 (centres unmarked) [drawing 3] | – | – | – | – | – | – | – | – | – | – | – | – | – | – | – | – | –
5 | 0.3 (≈ 1.5 µM) | 1.5 (≈ 7.49 µM) | Cc1cccc2c1CC1CC(=O)NC1=N2 (centres unmarked) [drawing 4] | – | – | – | – | – | – | – | – | – | – | – | – | – | – | – | – | –
